# Values of other authors, collected in patent US7204996B2, “Method of cancer treatment” (Board of Regents, The University of Texas System, priority 1999, dated 2007).
# How the values were obtained:
# [1] = system: MDR overexpressing HL-60 cells; conditions: for resistance index decrease on coincubation with verapamil: in the presence of verapamil
solubility in water solutions,SMILES,cytotoxicity ([1]; MDR overexpressing HL-60 cells),resistance index ([1]; compared with idarubicin and doxorubicin),resistance index decrease on coincubation with verapamil [1]
completely insoluble,"C[C@@H]1O[C@@H](O[C@H]2C[C@](O)(C(=O)CO)Cc3c(O)c4c(c(O)c32)C(=O)c2ccccc2C4=O)[C@H](I)[C@H](O)[C@H]1O [Annamycin, (7S,9S)-4-demethoxy-7-O-(2,6-dideoxy-2-iodo-alphamannopryanosyl) adriamycinone]",cytotoxic,lower than that of idarubicin and doxorubicin,did not change
–,"COc1cccc2c1C(=O)c1c(O)c3c(c(O)c1C2=O)C[C@@](O)(C(=O)CO)C[C@@H]3O[C@H]1C[C@H](N)[C@H](O)[C@H](C)O1 [doxorubicin, reference compound]",–,–,4.5 fold
–,"CC(=O)[C@]1(O)Cc2c(O)c3c(c(O)c2[C@@H](O[C@H]2C[C@H](N)[C@H](O)[C@H](C)O2)C1)C(=O)c1ccccc1C3=O [idarubicin, reference compound]",–,–,2 fold
